The target in assay [1] is T1, Peroxisome proliferator-activated receptor alpha (Mus musculus, UniProt P23204).
T1 sequence (P23204 whole entry): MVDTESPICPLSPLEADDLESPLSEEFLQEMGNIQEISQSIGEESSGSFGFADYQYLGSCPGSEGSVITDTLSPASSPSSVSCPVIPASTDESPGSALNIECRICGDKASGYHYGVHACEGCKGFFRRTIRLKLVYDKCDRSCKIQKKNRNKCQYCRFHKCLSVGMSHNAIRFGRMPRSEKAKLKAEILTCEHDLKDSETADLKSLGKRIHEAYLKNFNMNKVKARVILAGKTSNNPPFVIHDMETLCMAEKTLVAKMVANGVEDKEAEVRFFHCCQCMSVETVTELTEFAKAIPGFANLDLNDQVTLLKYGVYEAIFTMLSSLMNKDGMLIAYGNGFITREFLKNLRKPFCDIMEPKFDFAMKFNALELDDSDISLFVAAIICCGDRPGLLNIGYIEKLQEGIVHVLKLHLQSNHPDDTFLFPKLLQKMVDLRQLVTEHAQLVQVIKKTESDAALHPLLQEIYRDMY
The experiment in a line: Agonist activity at mouse PPARalpha transfected in Cos7 cells co-expressing with pBIND and pGL4.35 Gal4 UAS Luc reporter plasmid by measuring luciferase activity incubated for 16 hrs by luciferase reporter gene assay.

In assay [2] the test system is HepG2. Put plainly: Agonist activity against PPARalpha/delta (unknown origin) assessed as upregulation of PDK4 mRNA expression in human HepG2 cells at 8 nM incubated for 12 hrs by RT-PCR analysis. As to conditions: filed as agonist. It counts as cell-based.
Assay [3] concerns HepG2. The experiment in a line: Agonist activity against PPARalpha/delta (unknown origin) assessed as upregulation of CPT1A mRNA expression in human HepG2 cells at 8 nM incubated for 12 hrs by RT-PCR analysis. In kind it is cell-based. The conditions noted are these: filed as agonist.
For assay [4], the system named is Mus musculus. Put plainly: In vivo agonist activity at PPARalpha/delta assessed as upregulation of Kit11 mRNA expression in C57BL/6Nifdc mouse liver at 10 mg/kg, po for 4 days. In kind it is functional, organism-based. The conditions noted are these: time 4.0 day.
Assay [5] has as its system Mus musculus. Put plainly: In vivo agonist activity at PPARalpha/delta assessed as upregulation of […] mRNA expression in C57BL/6Nifdc mouse liver at 10 mg/kg, po for 4 days. As to conditions: time 4.0 day. In kind it is functional, organism-based.
The subject of assay [6] is Mus musculus. The experiment in a line: In vivo agonist activity at PPARalpha/delta assessed as upregulation of Mfn2 mRNA expression in C57BL/6Nifdc mouse liver at 10 mg/kg, po for 4 days. In kind it is functional, organism-based. As to conditions: time 4.0 day.
Assay [7] deals with Mus musculus. Put plainly: In vivo agonist activity at PPARalpha/delta assessed as upregulation of Acox1 mRNA expression in C57BL/6Nifdc mouse liver at 10 mg/kg, po for 4 days. It counts as functional, organism-based. As to conditions: time 4.0 day.
For assay [8], the system named is Mus musculus. The experiment in a line: In vivo agonist activity against PPARalpha/delta assessed as upregulation of Aldh3a2 mRNA expression in C57BL/6Nifdc mouse liver at 10 mg/kg, po for 4 days. In kind it is functional, organism-based. The conditions noted are these: time 4.0 day.
The test system of assay [9] is Mus musculus. The experiment in a line: In vivo agonist activity against PPARalpha/delta assessed as upregulation of Pdk4 mRNA expression in C57BL/6Nifdc mouse liver at 10 mg/kg, po for 4 days. In kind it is functional, organism-based. As to conditions: time 4.0 day.
Assay [10] concerns Mus musculus. Put plainly: In vivo agonist activity against PPARalpha/delta assessed as upregulation of Abcg2 mRNA expression in C57BL/6Nifdc mouse liver at 10 mg/kg, po for 4 days. As to conditions: time 4.0 day. In kind it is functional, organism-based.
The test system of assay [11] is Mus musculus. The experiment in a line: In vivo agonist activity against PPARalpha/delta assessed as upregulation of Vnn1 mRNA expression in C57BL/6Nifdc mouse liver at 10 mg/kg, po for 4 days. It counts as functional, organism-based. As to conditions: time 4.0 day.
Assay [12] deals with Mus musculus. Put plainly: In vivo agonist activity against PPARalpha/delta assessed as upregulation of Ugt1a9 mRNA expression in C57BL/6Nifdc mouse liver at 10 mg/kg, po for 4 days. It counts as functional, organism-based. The conditions noted are these: time 4.0 day.
Assay [13] deals with Mus musculus. The experiment in a line: In vivo agonist activity against PPARalpha/delta assessed as upregulation of Cpt1b mRNA expression in C57BL/6Nifdc mouse skeletal muscle at 10 mg/kg, po for 4 days. It counts as functional, organism-based. The conditions noted are these: time 4.0 day.
The subject of assay [14] is Mus musculus. The experiment in a line: In vivo agonist activity against PPARalpha/delta assessed as upregulation of Slc25a20 mRNA expression in C57BL/6Nifdc mouse skeletal muscle at 10 mg/kg, po for 4 days. In kind it is functional, organism-based. The conditions noted are these: time 4.0 day.
Assay [15] relates to Mus musculus. The experiment in a line: In vivo agonist activity against PPARalpha/delta assessed as upregulation of Ucp3 mRNA expression in C57BL/6Nifdc mouse skeletal muscle at 10 mg/kg, po for 4 days. It counts as functional, organism-based. The conditions noted are these: time 4.0 day.
Assay [16] relates to Mus musculus. The experiment in a line: In vivo agonist activity against PPARalpha/delta assessed as upregulation of Angptl4 mRNA expression in C57BL/6Nifdc mouse skeletal muscle at 10 mg/kg, po for 4 days. As to conditions: time 4.0 day. In kind it is functional, organism-based.
The subject of assay [17] is Mus musculus. Put plainly: In vivo agonist activity against PPARalpha/delta assessed as upregulation of Pdk4 mRNA expression in C57BL/6Nifdc mouse skeletal muscle at 10 mg/kg, po for 4 days. In kind it is functional, organism-based. As to conditions: time 4.0 day.
Assay [18] concerns Mus musculus. The experiment in a line: Anti-NASH activity in HF-CDAA-induced nonalcoholic steatohepatitis C57BL/6JNifdc mouse model assessed as decrease in level of serum AST 10 mg/kg, po by automatic biochemical analysis. In kind it is functional, organism-based.
Assay [19] concerns Mus musculus. The experiment in a line: Anti-inflammatory activity in HF-CDAA-induced nonalcoholic steatohepatitis C57BL/6JNifdc mouse model assessed as decrease in Il1b mRNA expression at 10 mg/kg, po. In kind it is functional, organism-based.
A further assay has as its system THP-1. Put plainly: Anti-inflammatory activity in human THP1-derived macrophages assessed as decrease in secretion of LPS-induced IL-6 level at 8 to 200 nM for 12 hrs by ELISA kit method. It counts as functional, cell-based. The conditions noted are these: dose 8-200 nM. A general note: ELISA stands for enzyme-linked immunosorbent assay.
The test system of assay [20] is AML12. Put plainly: Agonist activity against PPARalpha/delta (unknown origin) assessed as upregulation of ACADVL mRNA expression in […] cells incubated for 12 hrs by RT-PCR analysis. It counts as cell-based. The conditions noted are these: filed as agonist, dose 8-200 nM.
Assay [21] deals with AML12. Put plainly: Agonist activity against PPARalpha/delta (unknown origin) assessed as upregulation of Cpt1A mRNA expression in […] cells incubated for 12 hrs by RT-PCR analysis. It counts as cell-based. The conditions noted are these: filed as agonist, dose 8-200 nM.
The subject of the next assay is C2C12. The experiment in a line: Agonist activity against PPARalpha/delta ( unknown origin) assessed as upregulation of Pdk4 mRNA expression in […] cells incubated for 12 hrs by RT-PCR analysis. The conditions noted are these: filed as agonist, dose 8-200 nM. It counts as cell-based.
Assay [22] concerns the target T2, Peroxisome proliferator-activated receptor alpha (Homo sapiens) (UniProt Q07869).
T2 sequence (whole entry): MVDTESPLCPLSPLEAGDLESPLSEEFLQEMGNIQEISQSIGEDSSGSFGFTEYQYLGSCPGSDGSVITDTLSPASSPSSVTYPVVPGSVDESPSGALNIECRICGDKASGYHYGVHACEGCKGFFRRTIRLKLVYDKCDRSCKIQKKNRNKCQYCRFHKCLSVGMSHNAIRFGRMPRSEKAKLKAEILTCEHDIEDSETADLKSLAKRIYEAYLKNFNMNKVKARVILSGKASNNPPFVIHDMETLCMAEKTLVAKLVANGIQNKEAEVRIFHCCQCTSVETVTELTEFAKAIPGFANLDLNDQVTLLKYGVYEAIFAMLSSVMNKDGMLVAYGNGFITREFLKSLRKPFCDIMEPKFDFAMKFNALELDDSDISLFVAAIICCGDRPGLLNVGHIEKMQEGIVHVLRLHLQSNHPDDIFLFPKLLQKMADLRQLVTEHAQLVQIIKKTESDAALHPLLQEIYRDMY
The conditions noted are these: filed as agonist, dose 10.0 nM.
Description: Agonist activity at PPARalpha (unknown origin) assessed as maximal activation at 10 nM relative to GW7647

The source made the active and inactive calls. No cut-off for these calls is given here.

As to `Cc1cc(Cn2ncn(-c3ccc(OC(F)(F)F)cc3)c2=O)cc(C)c1OC(C)(C)C(=O)O`, in assay [1], the midpoint of the response, the EC50, lay at 16.8 nM. Further, the outcome with HepG2 [2], in the assay with HepG2 [3], in the assay on Mus musculus [4], with Mus musculus [5], with Mus musculus [6] and in the assay on Mus musculus [7] was Active. In addition, the result in the assay with Mus musculus [8], in the assay with Mus musculus [9], in the assay on Mus musculus [10], in the assay on Mus musculus [11], in the assay with Mus musculus [12] and in the assay on Mus musculus [13] was Active. For the same compound, the result with Mus musculus [14], in the assay on Mus musculus [15], in the assay with Mus musculus [16], in the assay on Mus musculus [17], with Mus musculus [18] and in the assay with Mus musculus [19] was Active. For the same compound, the result with THP-1 was Active. The Activity result in the assay on AML12 [20], in the assay on AML12 [21] and in the assay with C2C12 was “Dose-Dependent Effect” throughout. In assay [22], this compound yielded an Emax of 110%.

The record behind these values is ChEMBL document CHEMBL5042526, “Design, Synthesis, and Biological Evaluation of Triazolone Derivatives as Potent PPARα/δ Dual Agonists for the Treatment of Nonalcoholic Steatohepatitis” (J Med Chem, 2022).
